Results published in PubChem BioAssay AID330 (DTP/NCI, 2004).
Where “and” joins values, the source holds several entries; their conditions need not be identical. Equal values may be shown once. Toxic doses and inconclusive results are not listed.

Tested on: P388 leukemia ip, CD2F1 mice, survival T/C
Assay: NCI In Vivo Anticancer Drug Screen. Data for tumor model P388 Leukemia (intraperitoneal) in CD2F1 (CDF1) mice
Conditions: endpoint: median survival time, higher = longer survival
In short: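 Mice carrying the transplanted tumor received test compound or vehicle. Survival was recorded in each group, and the value is the treated-group measurement divided by that of the vehicle-treated control group.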

[1] = dose: 60.0 mg/kg/injection, schedule: Q01DX005 (ip), vehicle: saline with Tween-80
[2] = dose: 12.5 mg/kg/injection, schedule: Q01DX009 (ip), vehicle: Klucel (hydroxypropylcellulose) (HPC)
[3] = dose: 25.0 mg/kg/injection, schedule: Q01DX009 (ip), vehicle: Klucel (hydroxypropylcellulose) (HPC)
[4] = dose: 50.0 mg/kg/injection, schedule: Q01DX009 (ip), vehicle: Klucel (hydroxypropylcellulose) (HPC)
[5] = dose: 50.0 mg/kg/injection, schedule: Q01DX009 (ip), vehicle: saline with Tween-80
[6] = dose: 6.25 mg/kg/injection, schedule: Q01DX009 (ip), vehicle: saline
[7] = dose: 12.5 mg/kg/injection, schedule: Q01DX009 (ip), vehicle: saline
[8] = dose: 50.0 mg/kg/injection, schedule: Q01DX009 (ip), vehicle: saline
[9] = dose: 100.0 mg/kg/injection, schedule: Q01DX009 (ip), vehicle: saline
[10] = dose: 200.0 mg/kg/injection, schedule: Q01DX009 (ip), vehicle: saline
[11] = dose: 60.0 mg/kg/injection, schedule: Q01DX005 (ip), vehicle: saline
[12] = dose: 120.0 mg/kg/injection, schedule: Q01DX005 (ip), vehicle: saline
[13] = dose: 240.0 mg/kg/injection, schedule: Q01DX005 (ip), vehicle: saline

C/C(=N\Nc1ccc([N+](=O)[O-])cc1[N+](=O)[O-])c1ccc[nH]1
T/C (dose: 15.0 mg/kg/injection, schedule: Q01DX005 (ip), vehicle: saline with Tween-80): 96 % of control
T/C (dose: 30.0 mg/kg/injection, schedule: Q01DX005 (ip), vehicle: saline with Tween-80): 87 % of control
T/C [1]: 89 % of control

O=CN1CCCC1Cc1ccc2ccccc2c1 (stereo unspecified)
T/C (dose: 50.0 mg/kg/injection, schedule: Q01DX001 (ip), vehicle: Klucel (hydroxypropylcellulose) (HPC)): 107 % of control
T/C (dose: 100.0 mg/kg/injection, schedule: Q01DX001 (ip), vehicle: Klucel (hydroxypropylcellulose) (HPC)): 98 % of control
T/C (dose: 200.0 mg/kg/injection, schedule: Q01DX001 (ip), vehicle: Klucel (hydroxypropylcellulose) (HPC)): 101 % of control

O=C(NNc1ccccc1)c1ccccc1
T/C (dose: 3.13 mg/kg/injection, schedule: Q01DX009 (ip), vehicle: Klucel (hydroxypropylcellulose) (HPC)): 100 % of control
T/C (dose: 6.25 mg/kg/injection, schedule: Q01DX009 (ip), vehicle: Klucel (hydroxypropylcellulose) (HPC)): 98 % of control
T/C [2]: 100 % of control
T/C [3]: 100 % of control
T/C [4]: 113 % of control

CC1=C(N2CCOCC2)C(N2CCOCC2)C(C)C1=O (stereo unspecified)
T/C (dose: 50.0 mg/kg/injection, schedule: Q01DX005 (ip), vehicle: Klucel (hydroxypropylcellulose) (HPC)): 100 % of control
T/C (dose: 100.0 mg/kg/injection, schedule: Q01DX005 (ip), vehicle: Klucel (hydroxypropylcellulose) (HPC)): 101 % of control
T/C (dose: 200.0 mg/kg/injection, schedule: Q01DX005 (ip), vehicle: Klucel (hydroxypropylcellulose) (HPC)): 100 % of control

O=C1/C(=C/c2ccccc2O)SC(=S)N1C1CC1
T/C [5]: 100 % of control
T/C (dose: 100.0 mg/kg/injection, schedule: Q01DX009 (ip), vehicle: saline with Tween-80): 90 % of control
T/C (dose: 200.0 mg/kg/injection, schedule: Q01DX009 (ip), vehicle: saline with Tween-80): 95 % of control

OC1CC2CCCCC2CC1Cl (stereo unspecified)
T/C [4]: 90 % of control
T/C (dose: 100.0 mg/kg/injection, schedule: Q01DX009 (ip), vehicle: Klucel (hydroxypropylcellulose) (HPC)): 100 % of control
T/C (dose: 200.0 mg/kg/injection, schedule: Q01DX009 (ip), vehicle: Klucel (hydroxypropylcellulose) (HPC)): 100 % of control

CCN(CC)C1=C(C)C(=O)[C@]2([Si](C)(C)C)[C@](OC)(c3ccc(C(F)(F)F)cc3)[C@]12[Si](C)(C)C
T/C (dose: 100.0 mg/kg/injection, schedule: Q01DX001 (ip), vehicle: saline with Tween-80): 101 % of control
T/C (dose: 200.0 mg/kg/injection, schedule: Q01DX001 (ip), vehicle: saline with Tween-80): 100 % of control
T/C (dose: 400.0 mg/kg/injection, schedule: Q01DX001 (ip), vehicle: saline with Tween-80): 97 % of control

C[N+](C)=c1ccc2nc3ccc(N)cc3sc-2c1
T/C (dose: 3.13 mg/kg/injection, schedule: Q01DX009 (ip), vehicle: saline): 106 % of control
T/C (dose: 6.25 mg/kg/injection, schedule: Q01DX009 (ip), vehicle: saline with Tween-80): 87 % of control
T/C [6]: 94 % of control
T/C [7]: 95 % of control
T/C (dose: 25.0 mg/kg/injection, schedule: Q01DX009 (ip), vehicle: saline with Tween-80): 102 % of control and 103 % of control
T/C (dose: 25.0 mg/kg/injection, schedule: Q01DX009 (ip), vehicle: saline): 107 % of control
T/C [5]: 95 % of control
T/C [8]: 104 % of control

Cc1nc(-c2ccc(Cl)cc2)c(Cc2c(O)ccc3ccccc23)c(=O)[nH]1
T/C [8]: 102 % of control
T/C [9]: 102 % of control
T/C [10]: 102 % of control

N#C/C(=C\c1ccccn1)c1nc(-c2ccc(Cl)cc2)cs1
T/C [8]: 102 % of control
T/C [9]: 92 % of control
T/C [10]: 92 % of control

C/C(=C\C=C1\N(C)c2ccccc2C1(C)C)N=C(C#N)C#N
T/C (dose: 50.0 mg/kg/injection, schedule: Q04DX003 (ip), vehicle: saline with Tween-80): 93 % of control
T/C (dose: 100.0 mg/kg/injection, schedule: Q04DX003 (ip), vehicle: saline with Tween-80): 91 % of control
T/C (dose: 200.0 mg/kg/injection, schedule: Q04DX003 (ip), vehicle: saline with Tween-80): 96 % of control

CCCCNC(=S)NNc1nc(N(CC)CC)nc(N(CC)CC)n1
T/C (dose: 100.0 mg/kg/injection, schedule: Q04DX002 (ip), vehicle: saline with Tween-80): 99 % of control
T/C (dose: 200.0 mg/kg/injection, schedule: Q04DX002 (ip), vehicle: saline with Tween-80): 99 % of control

C/C1=C\CCC(C)C2CCC(C)(O2)C(O)C(O)c2c(C)coc2C1 (stereo unspecified)
T/C (dose: 4.0 mg/kg/injection, schedule: Q01DX009 (ip), vehicle: Klucel (hydroxypropylcellulose) (HPC)): 100 % of control
T/C (dose: 8.0 mg/kg/injection, schedule: Q01DX009 (ip), vehicle: Klucel (hydroxypropylcellulose) (HPC)): 105 % of control
T/C (dose: 16.0 mg/kg/injection, schedule: Q01DX009 (ip), vehicle: Klucel (hydroxypropylcellulose) (HPC)): 100 % of control
T/C (dose: 32.0 mg/kg/injection, schedule: Q01DX009 (ip), vehicle: Klucel (hydroxypropylcellulose) (HPC)): 94 % of control

Cc1cc(OC(=O)N2CCCCC2)c(C(C)C)cc1[N+](C)(C)C
T/C (dose: 0.02 mg/kg/injection, schedule: Q01DX009 (ip), vehicle: saline): 100 % of control
T/C (dose: 0.03 mg/kg/injection, schedule: Q01DX009 (ip), vehicle: saline): 100 % of control
T/C (dose: 0.06 mg/kg/injection, schedule: Q01DX009 (ip), vehicle: saline): 90 % of control

COc1cccc2c1C(=O)c1c(O)c3c(c(O)c1C2=O)C[C@@](O)(C(=O)COS(=O)(=O)c1ccc(C)cc1)C[C@@H]3OC1CC(N)C(O)C(C)O1 (stereo partly specified)
T/C (dose: 0.78 mg/kg/injection, schedule: Q01DX009 (ip), vehicle: water): 164 % of control
T/C (dose: 1.56 mg/kg/injection, schedule: Q01DX009 (ip), vehicle: water): 161 % of control
T/C (dose: 3.13 mg/kg/injection, schedule: Q01DX009 (ip), vehicle: water): 158 % of control and 161 % of control
T/C (dose: 6.25 mg/kg/injection, schedule: Q01DX009 (ip), vehicle: water): 155 % of control and 180 % of control
T/C (dose: 12.5 mg/kg/injection, schedule: Q01DX009 (ip), vehicle: water): 89 % of control

CC(=O)/C(=C\c1cccs1)C(=O)CCN(C)C
T/C [11]: 106 % of control and 111 % of control
T/C [12]: 113 % of control and 122 % of control
T/C [13]: 91 % of control

CCOC(=O)c1cn(CC)c2c(ccc3cnccc32)c1=O
T/C (dose: 60.0 mg/kg/injection, schedule: Q01DX005 (ip), vehicle: Klucel (hydroxypropylcellulose) (HPC)): 103 % of control
T/C (dose: 120.0 mg/kg/injection, schedule: Q01DX005 (ip), vehicle: Klucel (hydroxypropylcellulose) (HPC)): 100 % of control
T/C (dose: 240.0 mg/kg/injection, schedule: Q01DX005 (ip), vehicle: Klucel (hydroxypropylcellulose) (HPC)): 98 % of control

CC(C)(Sc1cc(Cl)c(Cl)c(Cl)c1)C(=O)OCCN1CCOCC1
T/C [1]: 101 % of control and 88 % of control
T/C (dose: 120.0 mg/kg/injection, schedule: Q01DX005 (ip), vehicle: saline with Tween-80): 101 % of control
T/C (dose: 240.0 mg/kg/injection, schedule: Q01DX005 (ip), vehicle: saline with Tween-80): 86 % of control and 94 % of control

O=C1NC2CC1C(O)C2O (stereo unspecified)
T/C [11]: 101 % of control
T/C [12]: 101 % of control
T/C [13]: 100 % of control

O=C(Oc1ccc(Cl)cc1Cl)C(Cl)=C(Cl)Cl
T/C [8]: 97 % of control
T/C [9]: 111 % of control
T/C [10]: 101 % of control

CCC(=O)NC(Cc1cccc(F)c1)C(=O)O (stereo unspecified)
T/C [6]: 112 % of control
T/C [7]: 102 % of control

Cc1ccc(C(C)(C)C[P+](C)(c2ccccc2)c2ccccc2)cc1
T/C [2]: 105 % of control
T/C [3]: 103 % of control

CCOc1ccc2nc3cc(N=Nc4ccc(N)nc4N)ccc3c(N)c2c1
T/C (dose: 12.5 mg/kg/injection, schedule: Q01DX005 (ip), vehicle: saline with Tween-80): 106 % of control
T/C (dose: 25.0 mg/kg/injection, schedule: Q01DX005 (ip), vehicle: saline with Tween-80): 113 % of control
T/C (dose: 50.0 mg/kg/injection, schedule: Q01DX005 (ip), vehicle: saline with Tween-80): 104 % of control and 105 % of control

COc1ccc(/C(C#N)=C\c2ccnc3ccccc23)c(OC)c1
T/C (dose: 12.5 mg/kg/injection, schedule: Q01DX009 (ip), vehicle: other): 87 % of control
T/C (dose: 25.0 mg/kg/injection, schedule: Q01DX009 (ip), vehicle: other): 91 % of control
T/C (dose: 50.0 mg/kg/injection, schedule: Q01DX009 (ip), vehicle: other): 87 % of control
T/C (dose: 100.0 mg/kg/injection, schedule: Q01DX009 (ip), vehicle: other): 87 % of control
T/C (dose: 200.0 mg/kg/injection, schedule: Q01DX009 (ip), vehicle: other): 87 % of control
